The target of test [1] is BRD4-BD2 (Homo sapiens (Human), UniProt O60885). Description: BRD4 AlphaScreen assay, BRD4-BD2. It is filed as binding. The following applies: biotin-labeled tetra-acetylated histone H4 peptide, 75 min, room temperature, read-out: BRD4 BD-2 enzyme IC50. In a few lines: (§1)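 AlphaScreen displacement of 50 nM biotin-tetra-acetylated H4 peptide from 3.8 nM BRD4-BD1 (1.25% DMSO) or 20 nM BRD4-BD2 (0.83% DMSO) in HEPES pH 7.4 buffer, 75 min RT. Streptavidin donor/GSH acceptor beads added, 75 min dark; IC50 from log-concentration curve fit.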

The target of test [2] is BRD4-BD1 (Homo sapiens (Human), UniProt O60885). The test is described as follows: BRD4 AlphaScreen assay, BRD4-BD1. It is filed as binding. The settings on record: biotin-labeled tetra-acetylated histone H4 peptide, 75 min, room temperature, read-out: BRD4 BD-1 enzyme IC50. Put shortly:
as §1
(In general: Bead proximity is the source of the signal in Alpha formats.)

pIC50: −log10 of the molar value. Where a name gives a salt, the structure may show the parent alone.

Turning to `Cc1nnc2ccc3c(cc(-c4ccn(C5CN(C(=O)CN(C)C)C5)n4)n3Cc3cccc(Cl)c3)n12` [Example 162, 2-(3-{3-[6-(3-Chlorobenzyl)-1-methyl-6H-pyrrolo[2,3-e][1,2,4]triazolo[4,3-a]pyridin-7-yl]-1H-pyrazol-1-yl}azetidin-1-yl)-N,N-dimethyl-2-oxoethanamine bis(trifluoroacetate) Salt], the pIC50 in test [1] and in test [2] was at least 7.00 throughout.

`Cc1nnc2ccc3c(cc(C(=O)NCCN(C)C)n3Cc3cccc(Cl)c3)n12` [Example 115, 6-(3-Chlorobenzyl)-N-[2-(dimethylamino)ethyl]-1-methyl-6H-pyrrolo[2,3-e][1,2,4]triazolo[4,3-a]pyridine-7-carboxamide bis(trifluoroacetate) Salt]: the pIC50 in test [1] and in test [2] was 6.00 to 7.00 in each case.

`Cc1cc2c(cc(N[C@@H]3CCN(C(=O)OC(C)(C)C)C3)c3nnc(C)n32)n1Cc1ccccc1` [Example 149, tert-butyl (3R)-3-[(6-benzyl-1,7-dimethyl-6H-pyrrolo[2,3-e][1,2,4]triazolo[4,3-a]pyridin-4-yl)amino]pyrrolidine-1-carboxylate]: the pIC50 in test [1] is at least 7.00; in test [2], 6.00 to 7.00.

In the case of `Cc1cc2c(cc(N[C@H]3CCOC3)c3nnc(C)n32)n1Cc1ccccc1` [Example 148, 6-benzyl-1,7-dimethyl-N-[(3S)-tetrahydrofuran-3-yl]-6H-pyrrolo[2,3-e][1,2,4]triazolo[4,3-a]pyridin-4-amine], the pIC50 in test [1] and in test [2] was at least 7.00 each time.

With `Cc1cc2c(cc(NCCN)c3nnc(C)n32)n1Cc1ccccc1` [Example 258, N1-(6-benzyl-1,7-dimethyl-6H-pyrrolo[2,3-e][1,2,4]triazolo[4,3-a]pyridin-4-yl)ethane-1,2-diamine], the pIC50 in test [1] and in test [2] was at least 7.00 throughout.

As for `CCNC(=O)Nc1cccc(Cn2c(C)cc3c2ccc2nnc(C)n23)c1` [Example 43, N-{3-[(1,7-dimethyl-6H-pyrrolo[2,3-e][1,2,4]triazolo[4,3-a]pyridin-6-yl)methyl]phenyl}-N′-ethylurea Trifluoroacetate Salt], the pIC50 in test [1] was at least 7.00; in test [2] it was 6.00 to 7.00.

Take `Cc1nnc2ccc3c(cc(-c4cscn4)n3Cc3ccccc3)n12` [Example 66, 6-benzyl-1-methyl-7-(1,3-thiazol-4-yl)-6H-pyrrolo[2,3-e][1,2,4]triazolo[4,3-a]pyridine]: the pIC50 in test [1] and in test [2] was at least 7.00 each time.

For `Cc1nnc2ccc3c(cc(-c4ccn(C5(CC#N)CNC5)n4)n3Cc3ccccc3)n12` [Example 90, {3-[3-(6-benzyl-1-methyl-6H-pyrrolo[2,3-e][1,2,4]triazolo[4,3-a]pyridin-7-yl)-1H-pyrazol-1-yl]azetidin-3-yl}acetonitrile], the pIC50 in test [1] and in test [2] was at least 7.00 in each case.

Turning to `CCNC(=O)CCn1ccc(-c2cc3c(ccc4nnc(C)n43)n2Cc2cccc(Cl)c2)n1` [Example 175, 3-{3-[6-(3-Chlorobenzyl)-1-methyl-6H-pyrrolo[2,3-e][1,2,4]triazolo[4,3-a]pyridin-7-yl]-1H-pyrazol-1-yl}-N-ethylpropanamide Trifluoroacetate Salt], the pIC50 in test [1] and in test [2] was at least 7.00 throughout.

For the compound `Cc1cc2c(ccc3nnc(C)n32)n1Cc1cccc(C(=O)NO)c1` [Example 31, 3-[(1,7-dimethyl-6H-pyrrolo[2,3-e][1,2,4]triazolo[4,3-a]pyridin-6-yl)methyl]-N-hydroxybenzamide Trifluoroacetate Salt], the pIC50 in test [1] is at least 7.00; in test [2] it was 6.00 to 7.00.

Turning to `CCN1CC(n2ccc(-c3cc4c(ccc5nnc(C)n54)n3Cc3cccc(Cl)c3)n2)C1` [Example 160, 6-(3-Chlorobenzyl)-7-[1-(1-ethylazetidin-3-yl)-1H-pyrazol-3-yl]-1-methyl-6H-pyrrolo[2,3-e][1,2,4]triazolo[4,3-a]pyridine bis(trifluoroacetate) Salt], the pIC50 in test [1] and in test [2] was at least 7.00 throughout.

As for `CCNC(=O)c1cccc(Cn2c(C)cc3c2ccc2nnc(C)n23)c1` [Example 33, 3-[(1,7-dimethyl-6H-pyrrolo[2,3-e][1,2,4]triazolo[4,3-a]pyridin-6-yl)methyl]-N-ethylbenzamide Trifluoroacetate Salt], the values for the pIC50 in test [1] and in test [2] were at least 7.00 and 6.00 to 7.00, respectively.

`CCCCC(c1ccccc1)n1c(C)cc2c1ccc1nnc(C)n12` (racemic) [Example 24, 1,7-dimethyl-6-(1-phenylpentyl)-6H-pyrrolo[2,3-e][1,2,4]triazolo[4,3-a]pyridine]: the pIC50 in test [1] and in test [2] was 6.00 to 7.00 each time.

As for `Cc1cc2c(cc(Nc3ccccc3)c3nnc(C)n32)n1Cc1ccccc1` [Example 260, 6-Benzyl-1,7-dimethyl-N-phenyl-6H-pyrrolo[2,3-e][1,2,4]triazolo[4,3-a]pyridin-4-amine], the pIC50 in test [1] and in test [2] was at least 7.00 throughout.

Regarding `Cc1nc2c(ccc3nnc(C)n32)n1Cc1ccccc1` [Example 55, 3-benzyl-2,8-dimethyl-3H-imidazo[4,5-e][1,2,4]triazolo[4,3-a]pyridine], the pIC50 was at least 7.00 in test [1] and 6.00 to 7.00 in test [2].

For `Cc1cc2c(ccc3nnc(C)n32)n1Cc1ccc(CN(C)C)cc1` [Example 53, 1-{4-[(1,7-dimethyl-6H-pyrrolo[2,3-e][1,2,4]triazolo[4,3-a]pyridin-6-yl)methyl]phenyl}-N,N-dimethylmethanamine], the pIC50 in test [1] and in test [2] was 6.00 to 7.00 in each case.

With `Cc1nnc2ccc3c(cc(-c4ccn(C5CN(S(=O)(=O)N(C)C)C5)n4)n3Cc3cccc(Cl)c3)n12` [Example 161, 3-{3-[6-(3-Chlorobenzyl)-1-methyl-6H-pyrrolo[2,3-e][1,2,4]triazolo[4,3-a]pyridin-7-yl]-1H-pyrazol-1-yl}-N,N-dimethylazetidine-1-sulfonamide bis(trifluoroacetate) Salt], the pIC50 in test [1] and in test [2] was at least 7.00 in each case.

As for `Cc1nnc2ccc3c(cc(-c4ccn(C5(CC#N)CN(C)C5)n4)n3Cc3ccccc3)n12` [Example 93, {3-[3-(6-benzyl-1-methyl-6H-pyrrolo[2,3-e][1,2,4]triazolo[4,3-a]pyridin-7-yl)-1H-pyrazol-1-yl]-1-methylazetidin-3-yl}acetonitrile], the pIC50 in test [1] and in test [2] was at least 7.00 in each case.

`Cc1nnc2ccc3c(cc(-c4ccn(CCC(=O)NC(C)(C)C)n4)n3Cc3cccc(Cl)c3)n12` [Example 176, N-(tert-Butyl)-3-{3-[6-(3-chlorobenzyl)-1-methyl-6H-pyrrolo[2,3-e][1,2,4]triazolo[4,3-a]pyridin-7-yl]-1H-pyrazol-1-yl}propanamide Trifluoroacetate Salt]: the pIC50 in test [1] and in test [2] was at least 7.00 each time.

As for `CCNC(=O)c1cc2c(ccc3nnc(C)n32)n1Cc1cccc(C(F)(F)F)c1` [Example 137, N-Ethyl-1-methyl-6-[3-(trifluoromethyl)benzyl]-6H-pyrrolo[2,3-e][1,2,4]triazolo[4,3-a]pyridine-7-carboxamide Trifluoroacetate Salt], the pIC50 in test [1] and in test [2] was at least 7.00 each time.

As for `CC(=O)Nc1cc2c(cc(C)n2Cc2ccccc2)n2c(C)nnc12` [Example 266, N-(6-Benzyl-1,7-dimethyl-6H-pyrrolo[2,3-e][1,2,4]triazolo[4,3-a]pyridin-4-yl)acetamide], the pIC50 in test [1] and in test [2] was at least 7.00 in each case.

As for `CNC(=O)c1cccc(Cn2c(C)cc3c2ccc2nnc(C)n23)c1` [Example 32, 3-[(1,7-dimethyl-6H-pyrrolo[2,3-e][1,2,4]triazolo[4,3-a]pyridin-6-yl)methyl]-N-methylbenzamide Trifluoroacetate Salt], the pIC50 in test [1] was at least 7.00; in test [2], 6.00 to 7.00.

Regarding `Cc1cccc(Cn2c(C)cc3c2ccc2nnc(C)n23)c1` [Example 18, 1,7-dimethyl-6-(3-methylbenzyl)-6H-pyrrolo[2,3-e][1,2,4]triazolo[4,3-a]pyridine], the pIC50 in test [1] and in test [2] was at least 7.00 throughout.

Turning to `Cc1nnc2ccc3c(cc(-c4ccn[nH]4)n3Cc3cccc(Cl)c3)n12` [Example 155, 6-(3-chlorobenzyl)-1-methyl-7-(1H-pyrazol-5-yl)-6H-pyrrolo[2,3-e][1,2,4]triazolo[4,3-a]pyridine bis(trifluoroacetate) Salt], the pIC50 in test [1] and in test [2] was at least 7.00 throughout.

`CNC(=O)CCn1ccc(-c2cc3c(ccc4nnc(C)n43)n2Cc2cccc(Cl)c2)n1` [Example 174, 3-{3-[6-(3-Chlorobenzyl)-1-methyl-6H-pyrrolo[2,3-e][1,2,4]triazolo[4,3-a]pyridin-7-yl]-1H-pyrazol-1-yl}-N-methylpropanamide Trifluoroacetate Salt]: the pIC50 in test [1] and in test [2] was at least 7.00 throughout.

With `Cc1nnc2ccc3c(cc(-c4ccn(C5CN(C(=O)C6CC6)C5)n4)n3Cc3cccc(Cl)c3)n12` [Example 164, 6-(3-Chlorobenzyl)-7-{1-[1-(cyclopropylcarbonyl)azetidin-3-yl]-1H-pyrazol-3-yl}-1-methyl-6H-pyrrolo[2,3-e][1,2,4]triazolo[4,3-a]pyridine Trifluoroacetate Salt], the pIC50 in test [1] and in test [2] was at least 7.00 in each case.

For `Cc1nnc2ccc3c(cc(-c4ccn(CCCO)n4)n3Cc3cccc(Cl)c3)n12` [Example 173, 3-{3-[6-(3-Chlorobenzyl)-1-methyl-6H-pyrrolo[2,3-e][1,2,4]triazolo[4,3-a]pyridin-7-yl]-1H-pyrazol-1-yl}propan-1-ol Trifluoroacetate Salt], the pIC50 in test [1] and in test [2] was at least 7.00 throughout.

As a reminder, the pIC50 is the IC50 on a negative log10 scale, so that one unit is a factor of ten.

These data come from US9777003B2, “Tricyclic heterocycles as bet protein inhibitors” (Incyte Corporation, priority 2013, dated 2017).
